Patent US9078446B2, “Use of N-(tetrazol-4-yl)- or N-(triazol-3-yl)arylcarboxamides or their salts for controlling unwanted plants in areas of transgenic crop plants being tolerant to HPPD inhibitor herbicides” (BAYER INTELLECTUAL PROPERTY GMBH, priority 2011, dated 2015)

Experiments:
[1] = target: T1, Arabidopsis thaliana HPPD (AtHPPD) (Arabidopsis thaliana, UniProt P93836); experiment: Determination of HPPD activity in presence of HPPD inhibitor (percentage of inhibition); type: biochemical; details: 5.0×10^−6M of compound, compared to activity in absence of compound
T1 construct: His6 (N); made in house; host or cells: E. coli K-12 BL21
T1 sequence (P93836 1-445): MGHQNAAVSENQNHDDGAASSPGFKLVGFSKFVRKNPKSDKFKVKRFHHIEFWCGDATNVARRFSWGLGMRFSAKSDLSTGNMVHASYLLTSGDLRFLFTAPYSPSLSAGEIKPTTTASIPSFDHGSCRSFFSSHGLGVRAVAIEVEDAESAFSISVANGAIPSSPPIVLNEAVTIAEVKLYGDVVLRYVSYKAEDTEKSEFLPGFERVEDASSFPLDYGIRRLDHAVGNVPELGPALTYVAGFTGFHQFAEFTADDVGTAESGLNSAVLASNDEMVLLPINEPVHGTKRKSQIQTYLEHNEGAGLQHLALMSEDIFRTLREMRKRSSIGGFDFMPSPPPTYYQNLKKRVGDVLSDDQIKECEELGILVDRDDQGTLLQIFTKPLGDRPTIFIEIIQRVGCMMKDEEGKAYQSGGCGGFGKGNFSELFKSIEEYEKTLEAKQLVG
Method: (§1) The HPPD activity was checked by the standard spectrophotmetric assay (method extensively described in WO 2009/144079)
(§2) Level of tolerance of HPPD proteins obtained from different organisms was determined according to the procedure as described in PCT/EP2010/070575.
(§3) Table E1: Determination of Percentage of Inhibition in Presence of 5.0×10^−6M of Compound “4-137” Compared to the Activity Measured in Absence of Compound No. “4-137” With HPPD Originated from Arabidopsis thaliana (AtHPPD), Mutated Pseudomonas fluorescens PfHPPD-G336W, Avena sativa (AvHPPD), FMP27 (Derived from Kordia algicida) and FMP37 (Derived from Blepharisma japonicum).

[2] = tested on: Avena sativa HPPD (AvHPPD); experiment: as above; type: biochemical
Method: as §1, §2, §3

[3] = tested on: FMP27 (HPPD derived from Kordia algicida); experiment: as above; type: biochemical
Method: as §1, §2, §3

[4] = tested on: FMP37 (HPPD derived from Blepharisma japonicum); experiment: as above; type: biochemical
Method: as §1, §2, §3

[5] = tested on: mutated Pseudomonas fluorescens PfHPPD-G336W; experiment: as above; type: biochemical
Method: as §1, §2, §3

[6] = tested on: transgenic tobacco plants expressing Avena HPPD (AvHPPD); experiment: Symptoms due to herbicide application on transgenic tobacco plants (damage classes 0-3); type: in vivo; details: 25 g Al/ha, one week after application
In short: (§4)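 Tobacco transformed via pBin19 with the HPPD gene under CaMV35S, fused to an N-terminal chloroplast transit peptide. T1 plants, potted at 3 weeks and grown 2 more weeks, sprayed with N-(tetrazol-4-yl)/N-(triazol-3-yl)arylcarboxamides (g AI/ha) on 8–10 plants from 1–3 events per transgene. Damage scored 0 (none) to 3 (very strong), versus non-transformed plants.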

[7] = tested on: transgenic tobacco plants expressing HPPD from Kordia algicida FMP27; experiment: as above; type: in vivo; details: 25 g Al/ha, one week after application
In short: as §4

## Cc1c(C(=O)Nc2nnnn2C)ccc(C(F)(F)F)c1S(C)(=O)=O [Compound 4-137]
[1]
  Inhibition %: 100%
[2]; 5.0×10^−6M of compound, compared to activity in absence of compound, AvHPPD
  Inhibition %: 93%
[2]; AvHPPD versus AtHPPD, identical experimental conditions
  tolerance/sensitivity of the HPPD to the inhibitor compared to Arabidopsis thaliana HPPD: less sensitive
[3]; 5.0×10^−6M of compound, compared to activity in absence of compound, FMP27
  Inhibition %: 90%
[3]; FMP27 versus AtHPPD, identical experimental conditions
  tolerance/sensitivity of the HPPD to the inhibitor compared to Arabidopsis thaliana HPPD: less sensitive
[4]; 5.0×10^−6M of compound, compared to activity in absence of compound, FMP37
  Inhibition %: 82%
[4]; FMP37 versus AtHPPD, identical experimental conditions
  tolerance/sensitivity of the HPPD to the inhibitor compared to Arabidopsis thaliana HPPD: less sensitive
[5]; 5.0×10^−6M of compound, compared to activity in absence of compound, PfHPPD-G336W
  Inhibition %: 92%
[5]; PfHPPD-G336W versus AtHPPD, identical experimental conditions
  tolerance/sensitivity of the HPPD to the inhibitor compared to Arabidopsis thaliana HPPD: less sensitive
[6]; AvHPPD line 656
  number of plants with Damage 0 (No damage): 3
  number of plants with Damage 1 (Light and transient damage): 1
  number of plants with Damage 2 (Strong damage): 1
  number of plants with Damage 3 (Very strong damage): 5
[6]; AvHPPD line 659
  number of plants with Damage 0 (No damage): 3
  number of plants with Damage 1 (Light and transient damage): 3
  number of plants with Damage 2 (Strong damage): 0
  number of plants with Damage 3 (Very strong damage): 4
[6]; AvHPPD line 699
  number of plants with Damage 0 (No damage): 1
  number of plants with Damage 1 (Light and transient damage): 2
  number of plants with Damage 2 (Strong damage): 0
  number of plants with Damage 3 (Very strong damage): 7
[7]; FMP27 line 733
  number of plants with Damage 0 (No damage): 4
  number of plants with Damage 1 (Light and transient damage): 0
  number of plants with Damage 2 (Strong damage): 1
  number of plants with Damage 3 (Very strong damage): 5
[7]; FMP27 line 734
  number of plants with Damage 0 (No damage): 5
  number of plants with Damage 1 (Light and transient damage): 2
  number of plants with Damage 2 (Strong damage): 0
  number of plants with Damage 3 (Very strong damage): 3
[7]; FMP27 line 735
  number of plants with Damage 0 (No damage): 3
  number of plants with Damage 1 (Light and transient damage): 0
  number of plants with Damage 2 (Strong damage): 4
  number of plants with Damage 3 (Very strong damage): 3
